Source: patent US20160215305A1, “Process of Fermenting A Lignocellulosic Biomass” (priority 2015, published 2016)

System: S. cerevisiae
Experiment: Batch fermentation of amino acid detoxified loblolly pine hydrolysates by Baker yeast
Assay type: cell-based, Saccharomyces cerevisiae
Details: hydrolysates detoxified with amino acid 0.2% w/v, pH 6.0, 60° C., 2 hours
From the text: Loblolly pine (Pinus taeda) wood chips (1.0×1.0 cm, L×W) were collected by Forest Products Laboratory at Auburn University, located in Auburn, Ala. Dilute acid pretreatment was used to produce biomass hydrolysates in a 4.0 L Parr batch reactor (Parr Instrument Co., Moline, Ill.) as previously described (Lai, C. H., Tu, M. B., Li, M., Yu, S. Y. 2014. Remarkable solvent and extractable lignin effects on enzymatic digestibility of organosolv pretreated hardwood. Bioresource Technology, 156, 92-98). Briefly, wood chips (400 grams, dry weight) were soaked in 1% (w/w) sulfuric acid overnight (7:1 liquor/solid ratio) prior to the pretreatment, and then loaded into a reactor and treated at 170° C. for 60 minutes.
To achieve higher ethanol titer in fermentation, loblolly pine hydrolysates were concentrated to approximately one-third of its original volume using a rotary evaporator (IKA RV10 basic) at 40° C. and 60 rotations per minute (rpm). The hydrolysates were first adjusted to pH 4.0 before evaporation. After the concentration, the sugar contents of the hydrolysates were analyzed by HPLC.
[…] The detoxification experiments were performed in a 250 mL flask and placed in a temperature-controlled water batch.
Baker yeast (Fleischmann's), S. cerevisiae, was used for all the fermentation experiments in this study. The yeast was maintained on YDP medium containing (g/L): 20 glucose, 20 peptone, 10 yeast extract and 20 agar. Isolated colony was grown in YDP liquid medium overnight and harvested as fermentation inoculum. The yeast concentration was measured using an UV-vis spectrophotometer. Inoculum of 2.0 g/L was used for all fermentation experiments.
Batch fermentation was carried out in 125 mL serum bottles containing 50 mL broths (untreated or detoxified hydrolysates, untreated or detoxified cinnamaldehyde sugar solution) without any additional nutrient supplement. All the fermentation broths were adjusted to pH 6 with NaOH or H2SO4 and sterilized by passing 0.2 μm sterile filters. After inoculation, the serum bottle was sealed with rubber stopper and aluminum seal, and equipped with cannulas for CO2 release. All fermentation experiments were incubated at 30° C., spun at 150 rpm in a shaker (E24, New Brunswick Scientific). Aliquots of samples were withdrawn at 0, 1, 3, 6, 9, 12, 24, 36 and 48 hours for the time course analysis of both starting material and products. Fermentation was carried out in duplicate. The volumetric ethanol productivity and initial consumption rate of glucose (RG) and mannose (RM) was calculated based on the sugar consumed in the first 6 h of fermentation as described previously (Cao, D. X., Tu, M. B., Xie, R., Li, J., Wu, Y. N., Adhikari, S. 2014. Inhibitory Activity of Carbonyl Compounds on Alcoholic Fermentation by Saccharomyces cerevisiae. Journal of Agricultural and Food Chemistry, 62(4), 918-926).
Ethanol, acetic acid, levulinic acid, formic acid, furfural and HMF were analyzed using an Aminex HPX-87H column (300×7.8 mm) with a refractive index detector. The elution conditions were column temperature of 45° C. and flow rate of 0.6 ml/min with 5.0 mM H2SO4 as the mobile phase in a 60 min isocratic run.

Row | SMILES | CEtOH, ethanol final concentration at 48 h | CHMF, percentage of HMF consumed at 48 h | QEtOH, volumetric ethanol productivity in the first 6 h | RG, glucose consumption rate in the first 6 h | RM, mannose consumption rate in the first 6 h | YEtOH, ethanol yield from total glucose and mannose at 48 h
1 | O=C(O)[C@@H]1CCCN1 [Proline, proline] | 3.12 ± 0.13 g/L | 13.35 ± 1.05% | 0.33 ± 0.00 g/L/h | 0.27 ± 0.05 g/L/h | 0.67 ± 0.18 g/L/h | 0.06 ± 0.00 g/g
2 | CC(C)C[C@H](N)C(=O)O [Leucine, leucine] | 2.83 ± 0.19 g/L | 12.84 ± 1.32% | 0.34 ± 0.01 g/L/h | 0.27 ± 0.04 g/L/h | 0.64 ± 0.12 g/L/h | 0.05 ± 0.00 g/g
3 | N[C@@H](CC(=O)O)C(=O)O [Aspartate, aspartate] | 3.86 ± 0.18 g/L | 16.27 ± 0.30% | 0.47 ± 0.00 g/L/h | 0.43 ± 0.02 g/L/h | 0.90 ± 0.01 g/L/h | 0.07 ± 0.00 g/g
4 | N[C@@H](CO)C(=O)O [Serine, serine] | 3.87 ± 0.08 g/L | 15.66 ± 0.11% | 0.45 ± 0.00 g/L/h | 0.38 ± 0.00 g/L/h | 0.65 ± 0.13 g/L/h | 0.07 ± 0.00 g/g
5 | C[C@@H](O)[C@H](N)C(=O)O [Threonine, threonine] | 3.96 ± 0.13 g/L | 16.19 ± 0.87% | 0.41 ± 0.01 g/L/h | 0.36 ± 0.02 g/L/h | 0.67 ± 0.03 g/L/h | 0.07 ± 0.00 g/g
6 | CC(C)[C@H](N)C(=O)O [Valine, valine] | 2.69 ± 0.18 g/L | 12.66 ± 1.50% | 0.32 ± 0.00 g/L/h | 0.25 ± 0.00 g/L/h | 0.49 ± 0.03 g/L/h | 0.05 ± 0.00 g/g
7 | N[C@@H](Cc1c[nH]cn1)C(=O)O [Histidine, histidine] | 23.07 ± 0.35 g/L | – | 0.78 ± 0.00 g/L/h | 0.94 ± 0.00 g/L/h | 1.02 ± 0.01 g/L/h | 0.42 ± 0.01 g/g
8 | C[C@H](N)C(=O)O [Alanine, alanine] | 2.14 ± 0.01 g/L | 11.03 ± 1.64% | 0.28 ± 0.00 g/L/h | 0.21 ± 0.02 g/L/h | 0.44 ± 0.07 g/L/h | 0.04 ± 0.00 g/g
9 | N[C@@H](Cc1ccc(O)cc1)C(=O)O [Tyrosine, tyrosine] | 2.16 ± 0.25 g/L | 12.17 ± 0.92% | 0.30 ± 0.02 g/L/h | 0.25 ± 0.02 g/L/h | 0.59 ± 0.05 g/L/h | 0.04 ± 0.00 g/g
10 | N[C@@H](CCC(=O)O)C(=O)O [Glutamate, glutamate] | 3.63 ± 0.23 g/L | 15.40 ± 0.72% | 0.41 ± 0.01 g/L/h | 0.34 ± 0.02 g/L/h | 0.56 ± 0.03 g/L/h | 0.07 ± 0.00 g/g
11 | N[C@@H](Cc1ccccc1)C(=O)O [Phenylalanine, phenylalanine] | 1.87 ± 0.02 g/L | 12.69 ± 1.12% | 0.28 ± 0.00 g/L/h | 0.24 ± 0.01 g/L/h | 0.56 ± 0.01 g/L/h | 0.03 ± 0.00 g/g
12 | NC(=O)C[C@H](N)C(=O)O [Asparagine, asparagine] | 11.18 ± 0.15 g/L | – | 0.58 ± 0.01 g/L/h | 0.65 ± 0.01 g/L/h | 0.87 ± 0.10 g/L/h | –
13 | N=C(N)NCCC[C@H](N)C(=O)O [Arginine, arginine] | 2.62 ± 0.03 g/L | 12.69 ± 0.27% | 0.34 ± 0.01 g/L/h | 0.29 ± 0.02 g/L/h | 0.59 ± 0.07 g/L/h | 0.05 ± 0.00 g/g
14 | CSCC[C@H](N)C(=O)O [Methionine, methionine] | 3.11 ± 0.02 g/L | 12.78 ± 0.10% | 0.31 ± 0.00 g/L/h | 0.27 ± 0.01 g/L/h | 0.63 ± 0.02 g/L/h | 0.06 ± 0.00 g/g
15 | CC[C@H](C)[C@H](N)C(=O)O [Isoleucine, isoleucine] | 5.03 ± 1.46 g/L | 17.36 ± 3.50% | 0.44 ± 0.08 g/L/h | 0.37 ± 0.02 g/L/h | 0.66 ± 0.06 g/L/h | 0.09 ± 0.03 g/g

Same assay, conditions: hydrolysates detoxified with amino acid 0.2% w/v, pH 6.0, 60° C., 2 hours; listed as asparagine

Row | SMILES | CEtOH, ethanol final concentration at 48 h | RG, glucose consumption rate in the first 6 h | RM, mannose consumption rate in the first 6 h
16 | NC(=O)C[C@H](N)C(=O)O [Asparagine, asparagine] | 11.18 g/L | 0.65 g/L/h | 0.87 g/L/h

Same assay, conditions: hydrolysates detoxified with amino acid 0.2% w/v, pH 6.0, 60° C., 2 hours; listed as histidine

Row | SMILES | CEtOH, ethanol final concentration at 48 h | RG, glucose consumption rate in the first 6 h | RM, mannose consumption rate in the first 6 h | YEtOH, ethanol yield from total glucose and mannose at 48 h
17 | N[C@@H](Cc1c[nH]cn1)C(=O)O [Histidine, histidine] | 23.07 g/L | 0.94 g/L/h | 1.02 g/L/h | 0.42 g/g

Same assay, conditions: pH 6.0, 60° C., 2 hours detoxification

Row | SMILES | sugar consumption rate (glucose and mannose) less than those from cysteine detoxification
18 | N[C@@H](Cc1c[nH]cn1)C(=O)O [Histidine, histidine] | 50%
